In ChEMBL document CHEMBL1201862, “PubChem BioAssay data set” (2004):
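Following 48 hours of exposure in 96-well plates, responses at five concentrations were used to interpolate endpoints linearly. GI50 is the concentration that inhibits growth by half.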 Active and inactive are the calls of the source. Rule as the data show it: active = GI50 up to about 1.1 µM and inactive = higher.

Legend:
Assay in all cases: NCI anticancer screen, dose series, 48 h
786-0 = test system: 786-0
A498 = test system: A498
A549 = test system: A549
ACHN = test system: ACHN
BT-549 = test system: BT-549
CAKI-1 = test system: CAKI-1
CCRF-CEM = test system: CCRF-CEM
COLO 205 = test system: COLO 205
DU-145 = test system: DU-145
EKVX = test system: EKVX
HCC 2998 = test system: HCC 2998
HCT-116 = test system: HCT-116
HL-60 = test system: HL-60
HOP-62 = test system: HOP-62
HOP-92 = test system: HOP-92
HT-29 = test system: HT-29
Hs-578T = test system: Hs-578T
IGROV-1 = test system: IGROV-1
K562 = test system: K562
KM12 = test system: KM12
LOX IMVI = test system: LOX IMVI
M14 = test system: M14
MCF7 = test system: MCF7
MDA-MB-231 = test system: MDA-MB-231
MDA-MB-435 = test system: MDA-MB-435
MDA-N = test system: MDA-N
MOLT-4 = test system: MOLT-4
Malme-3M = test system: Malme-3M
NCI-H226 = test system: NCI-H226
NCI-H23 = test system: NCI-H23
NCI-H460 = test system: NCI-H460
NCI-H522 = test system: NCI-H522
NCI/ADR-RES = test system: NCI/ADR-RES
OVCAR-3 = test system: OVCAR-3
OVCAR-4 = test system: OVCAR-4
OVCAR-5 = test system: OVCAR-5
OVCAR-8 = test system: OVCAR-8
PC-3 = test system: PC-3
RPMI-8226 = test system: RPMI-8226
RXF 393 = test system: RXF 393
SF-268 = test system: SF-268
SF-295 = test system: SF-295
SF-539 = test system: SF-539
SK-MEL-28 = test system: SK-MEL-28
SK-MEL-2 = test system: SK-MEL-2
SK-MEL-5 = test system: SK-MEL-5
SN12C = test system: SN12C
SNB-75 = test system: SNB-75
SR = test system: SR
SW-620 = test system: SW-620
T47D = test system: T47D
TK-10 = test system: TK-10
U-251 = test system: U-251
UACC-257 = test system: UACC-257
UACC-62 = test system: UACC-62
UO-31 = test system: UO-31

Measured: GI50

Cc1cc2c(cc1C)OC(=O)CC2
inactive: 786-0 > 100 µM | A498 > 100 µM | A549 > 100 µM | ACHN > 100 µM | BT-549 > 100 µM | CAKI-1 > 100 µM | CCRF-CEM > 100 µM | COLO 205 > 100 µM | DU-145 > 100 µM | EKVX > 100 µM | HCC 2998 > 100 µM | HCT-116 > 100 µM | HL-60 > 100 µM | HOP-62 > 100 µM | HOP-92 > 100 µM | HT-29 > 100 µM | Hs-578T > 100 µM | IGROV-1 > 100 µM | K562 > 100 µM | KM12 > 100 µM | LOX IMVI > 100 µM | M14 > 100 µM | MCF7 > 100 µM | MDA-MB-231 > 100 µM | MDA-MB-435 > 100 µM | MDA-N > 100 µM | MOLT-4 > 100 µM | Malme-3M > 100 µM | NCI-H226 > 100 µM | NCI-H23 > 100 µM | NCI-H460 > 100 µM | NCI-H522 > 100 µM | NCI/ADR-RES > 100 µM | OVCAR-3 > 100 µM | OVCAR-4 > 100 µM | OVCAR-5 > 100 µM | OVCAR-8 > 100 µM | PC-3 > 100 µM | RPMI-8226 > 100 µM | RXF 393 > 100 µM | SF-268 > 100 µM | SF-295 > 100 µM | SF-539 > 100 µM | SK-MEL-28 > 100 µM | SK-MEL-2 > 100 µM | SK-MEL-5 > 100 µM | SN12C > 100 µM | SNB-75 > 100 µM | SR > 100 µM | SW-620 > 100 µM | T47D > 100 µM | TK-10 > 100 µM | U-251 > 100 µM | UACC-257 > 100 µM | UACC-62 > 100 µM | UO-31 > 100 µM
